Laboratory results published in paper PMC12274739, “Differential substrate degradation by super-degron: EGFP in wild-type mouse cells, PD-1 requires CRBN humanization” (iScience, 2025).
Where “and” joins values, the source holds several entries; their conditions need not be identical. Equal values may be shown once. Read-outs that look alike come from different tables or passages of the source.

Columns and labels:
[1] = tested on: mouse PD-1-mCherry-IKZF full-length tag; conditions: Jurkat, 24 h
[2] = tested on: mouse PD-1-mCherry-IKZF minimal tag; assay: Degradation of IKZF minimal-tagged mouse PD-1-mCherry in Jurkat cells; format: cell-based, human; conditions: 24 h
Source text: To identify a tag that could efficiently knock down mouse PD-1, we connected various degron tags to the C-terminus of PD-1, including IKZF1/3, Sall4, ZFP91, and SD, and generated Jurkat human T cell lymphoma cell lines that stably expressed the mouse PD-1-degron tag (Figure 1A). As reported previously,[21]^,[22]^,[23] in mouse CRBN, the 391st amino acid corresponding to Val-388 of human CRBN is Ile, which causes a protrusion when a neo substrate binds to CRBN, resulting in a weaker affinity than in human CRBN (Figure 1B). Therefore, a human cell line was used because it was thought that mouse CRBN would not degrade SD by thalidomide analogs. […] We also analyzed the degradation of total proteins using mCherry.
Figure 1 Degradation of various degron-tagged mouse PD-1 in human Jurkat cell line (A) The protein construction of PD-1 tagged with mCherry and a degron tag. […] Valine 388 in human CRBN (red on the left) is replaced by isoleucine in mouse CRBN (gray on the right, over the red valine), causing a conflict between CRBN and IKZF1/3 (yellow ellipse). The stretch of the methyl group in isoleucine causing the conflict is indicated by a yellow arrow. (C) The amount of PD-1 and mCherry fused to IKZF minimal (blue, n = 1), IKZF full length (light blue, n = 1), Sall4 (orange, n = 1) or super degron (SD; red, n = 3) tags in Jurkat human T cell lymphomas 24 h after the addition of pomalidomide (POM) measured by flow cytometry. […] (C and D) The amount was standardized with the sample to which no reagent was added as 1. Concentrations of reagents were 0 (−), 5, 10, and 20 μM for IKZF minimal, IKZF full-length, and Sall4 tags and 0 (−), 0.5, 5 μM for SD tag. The dots indicate the results of the experiment for each of samples.

[3] = tested on: EGFP-SD; format: cell-based, mouse; conditions: for ratio of bottom, mouse vs human cell line: EGFP-SD; for bottom vs top, EGFP-SD: IBR up to 1 μM
[4] = set-up: method as in PMID 31125896; conditions: BALB/c mice, oral; cited from earlier work
[5] = target: EGFP-ZFP91 (UniProt P42212+Q8C7D2, F64L/H231L/INS1V/S65T); format: cell-based, mouse; conditions: read-out: DC50, EGFP-ZFP91, stable
Sequence of EGFP-ZFP91 (Q8C7D2 whole entry, looked up, stated change not applied, other chains not shown): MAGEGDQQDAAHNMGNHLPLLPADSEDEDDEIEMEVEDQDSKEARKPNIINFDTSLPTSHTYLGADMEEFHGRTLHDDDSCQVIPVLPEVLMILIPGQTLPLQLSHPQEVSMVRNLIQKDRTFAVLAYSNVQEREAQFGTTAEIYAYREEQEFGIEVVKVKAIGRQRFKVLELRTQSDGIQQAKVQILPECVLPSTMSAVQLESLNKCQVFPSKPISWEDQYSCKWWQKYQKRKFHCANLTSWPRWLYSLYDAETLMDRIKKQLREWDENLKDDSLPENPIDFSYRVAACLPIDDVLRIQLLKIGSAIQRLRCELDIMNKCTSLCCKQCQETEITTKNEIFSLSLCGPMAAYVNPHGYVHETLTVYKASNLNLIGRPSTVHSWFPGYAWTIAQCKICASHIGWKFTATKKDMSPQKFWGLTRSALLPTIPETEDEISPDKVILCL

[6] = tested on: MC-38 adenocarcinoma cells; assay: Growth of inoculated MC-38 adenocarcinoma cells in mice; format: in vivo, mouse
Description: Data are represented as mean ± standard error (SEM). The same experiment was repeated twice to confirm reproducibility. p-values were determined by two-way ANOVA multiple comparisons. ∗∗∗∗p < 0.0001 and ∗p = 0.0267. […] Data are represented as mean ± SEM. The same experiment was repeated twice to confirm reproducibility. p-values were determined by two-way ANOVA multiple comparisons. ∗∗∗∗p < 0.0001, ∗∗∗p = 0.0005, ∗∗p = 0.0067. […] Ratio of PD-1 positive cells and mean fluorescence intensity (MFI) of PD-1 (D), TIM-3 (E), and LAG-3 (F) on CD8^+ and CD4^+ T cells isolated from tumor microenvironments 9 days after the initiation of treatment are shown. Fluorescence intensity of each molecule was measured by flow cytometry, and the geometric MIFs of marker-positive cells were calculated. The data in two experiments were compiled. p-values were determined by the Brown-Forsythe and Welch ANOVA test. Different letters indicate statistically significant differences between groups (p < 0.05). […]
Next, the effects of SD-induced PD-1 reduction were compared with those of anti-PD-1 antibody treatment in vivo. […] CD3^+ T cells infiltrating the MC-38 microenvironment were analyzed on day 9 of treatment before the MC-38 tumor masses had shrunk with treatment and no longer provided sufficient T cells for FACS analyses. […]

Structure (SMILES): Nc1cccc2c1C(=O)N(C1CCC(=O)NC1=O)C2=O (stereo not drawn) [POM, pomalidomide]
- Bottom, mCherry (mC) ([1]; mCherry, no reagent = 1): 0.6165
- Bottom, PD-1 (FITC) ([1]; surface PD-1, no reagent = 1): 0.32 and 0.3218
- LogDC50, mCherry (mC) ([2]; mCherry): 0.04896 µM
- Bottom, mCherry (mC) ([2]; mCherry, no reagent = 1): 0.8201
- LogDC50, PD-1 (FITC) ([2]; surface PD-1): 0.1515 µM
- Bottom, PD-1 (FITC) ([2]; surface PD-1, no reagent = 1): 0.53 and 0.5295

Structure (SMILES): O=C1CC[C@H](N2Cc3c(OCc4ccc(CN5CCOCC5)cc4)cccc3C2=O)C(=O)N1 [IBR, iberdomide]
- ratio of bottom, mouse vs human cell line ([3]; EL4 vs Jurkat): 1.804
- ratio of bottom, mouse vs human cell line ([3]; NIH3T3 vs HEK293): 3.605
- Bottom, EGFP-SD ([3]; EL4, stable): 0.04356
- DC50 ([3]; EL4, stable): 0.0755 nM
- bottom vs top, EGFP-SD ([3]; EL4, stable): 0.057
- Bottom, EGFP-SD ([3]; NIH3T3, stable): 0.03706
- DC50 ([3]; NIH3T3, stable): 0.079 nM
- bottom vs top, EGFP-SD ([3]; NIH3T3, stable): 0.049
- Bottom, EGFP-SD ([3]; mouse ESCs, stable): 0.02573
- DC50 ([3]; mouse ESCs, stable): 0.221 nM
- bottom vs top, EGFP-SD ([3]; mouse ESCs, stable): 0.085
- level to which EGFP-SD was suppressed ([3]; mouse wild-type cell lines, IBR approximately 10^−2 μM to 10^−3 μM): 10%
- half-life (T1/2) [4]: 54 min
- time of serum concentration peak [4]: 0.14 h
- DC50 ([5]; B6J-S1 mESCs, Figure 5B): 20.9 nM
- DC50 ([5]; CrbnI391V/I391V mESCs, Figure 5E): 0.834 nM
- MC-38 cell proliferation ([6]; Pdcd1+/+/CrbnI391V/I391V mice): comparable
- growth of MC-38 cells ([6]; Pdcd1SD/SD/CrbnI391V/I391V mice, oral administration of IBR): suppressed proliferation for the entire period
